Assay results as given in patent publication US8754241B2, “Organic compound and electrochromic element having the same” (Canon Kabushiki Kaisha, priority 2012, dated 2014).
Converted amounts (≈) assume the structure as drawn.

Key:
Type in all cases: physicochemical
[1] = ultraviolet-visible absorption spectrum in the neutral state, chloroform solution
Method: The exemplary compound B-2 thus obtained was dissolved in chloroform, and the absorption spectrum of this solution measured by using an ultraviolet-visible spectrophotometer (V-560 manufactured by JASCO Corporation) is shown in FIG. 2.

[2] = oxidation-reduction cycle durability test (cyclic voltammetry); settings: dichloromethane; for change in oxidation peak current after 20,000 oxidation-reduction cycles (in words): 20,000 cycles; for Rate of Change in Oxidation Peak Current after Oxidation-Reduction Cycles for 20,000 Times: tetrabutylammonium perchlorate 0.1 mol/L, compound 1.0×10^−4 mol/L, initial current = 100%
Method: (§1) For the durability measurement, glassy carbon was used for a working electrode, platinum was used for a counter electrode, silver was used for a reference electrode, and a dichloromethane solution was used in which tetrabutylammonium perchlorate (0.1 mol/L) as a supporting electrolyte and each of the above compounds (1.0×10^−4 mol/L) were dissolved.
In this solution, a square-wave potential program including constant potential oxidation at +0.8 V (B-2 and B-1) or +1.2 V (XX-4) (vs. Ag/Ag^+), each of which was equal to or more than the oxidation potential of the corresponding compound, for 3 seconds and subsequent constant potential reduction at 0 V (vs. Ag/Ag^+) for 3 seconds was repeatedly performed 20,000 times.
The changes in oxidation peak current in cyclic voltammetry (CV) measurement before and after the oxidation-reduction cycles for 20,000 times are shown in Table.
In this table, the “rate of change in oxidation peak current” indicates a value obtained by adding the change in current from the initial current (represented by 100%) to the initial current.

[3] = oxidation absorption spectrum / change in transmittance on constant potential oxidation; settings: for shape and wavelength of the oxidation absorption peak with concentration (π-dimer formation): 5.0×10^−4 or 1.7×10^−4 mol/L; for transmittance after oxidation / light absorption peak in the oxidized state: constant potential oxidation at +0.9 V (vs. Ag/Ag+); for transmittance after oxidation: at the absorption peak
Method: as §1, with “the measurement of an oxidation absorption spectrum, platinum” for “the durability measurement, glassy carbon”, “(0.1 mol/l)” for “(0.1 mol/L)”, “compounds (5.0×10^−4 or 1.7×10^−4” for “compounds (1.0×10^−4”
In this solution, constant potential oxidation at +0.9 V (vs. Ag/Ag+), which was equal to or more than the oxidation potential of the compound, was performed, and the change in transmittance was measured.
The measurement of the oxidation absorption spectrum of the obtained compound D-11 was performed as in Example 4 using a dichloromethane solution in which tetrabutylammonium perchlorate (0.1 mol/L) and D-11 (5.0×10^−4 mol/L) were dissolved. […] This oxidation colored state was again returned to a colorless and transparent state by reduction, and the electrochromic characteristics in conformity with oxidation-reduction were confirmed. In addition, since the shape and the absorption wavelength of this oxidation absorption peak were not changed with the concentration, it was shown that as in Example 4, the formation of π-dimers was suppressed.

[4] = solubility in propylene carbonate solution of supporting electrolyte; settings: propylene carbonate solution of LiCO4 (0.1 mol/L), organic solvent or mixture
Method: In addition, as one example of the element solvent, the solubility of the compound D-11 in a propylene carbonate solution of LiCO4 (supporting electrolyte, 0.1 mol/L) was confirmed. According to the result, it was confirmed that this compound was dissolved at a concentration of 9 mmol/L and that the solubility thereof was higher than the solubility (6 mmol/L) of the compound B-2 of Example 1. The reason for this is believed that since having an ester group-containing phenyl group at the 3-position of DTT, the compound D-11 has an improved solubility into propylene carbonate, which is a polar solvent.

λ max at which the absorption peak showed the maximum intensity [1] | change in oxidation peak current after 20,000 oxidation-reduction cycles (in words) [2] | Rate of Change in Oxidation Peak Current after Oxidation-Reduction Cycles for 20,000 Times [2] | shape and wavelength of the oxidation absorption peak with concentration (π-dimer formation) [3] | transmittance after oxidation [3] | light absorption peak in the oxidized state ([3]; dichloromethane) | transmittance in the bleached state before oxidation ([3]; over the entire visible light region, dichloromethane) | solubility [4] | Compound | absorption in the visible light region [1]
309.5 nm | hardly observed | 98% | not changed | 20.3% | approximately 510 nm | approximately 100% |  | COc1cccc(OC)c1-c1sc2c(sc3c(-c4ccccc4)c(-c4c(OC)cccc4OC)sc32)c1-c1ccccc1 [B-1] | no absorption over the entire visible light region
307.5 nm | hardly observed | 101% | not changed |  |  |  | 6 mM (≈ 4060 µg/mL) | COc1cccc(OC(C)C)c1-c1sc2c(sc3c(-c4ccccc4)c(-c4c(OC)cccc4OC(C)C)sc32)c1-c1ccccc1 [B-2] | no absorption over the entire visible light region
316.0 nm |  |  | not changed | 36.3% | 541.5 nm |  | 9 mM (≈ 7140 µg/mL) | COC(=O)c1ccc(-c2c(-c3c(OC)cccc3OC(C)C)sc3c2sc2c(-c4ccc(C(=O)OC)cc4)c(-c4c(OC)cccc4OC(C)C)sc23)cc1 [D-11] | no absorption over the entire visible light region
 | decreased | 81% |  |  |  |  |  | CC(C)(C)c1cc2sc3cc(C(C)(C)C)sc3c2s1 [XX-4, reference compound] | 
